Test results: patent publication US4879384A, “Preparation of thiocycloalkno [3,2-b] pyridines” (Ortho Pharmaceutical Corporation, priority 1988, dated 1989)
Read-outs that look alike come from different tables or passages of the source.

Tests used:
calcium channels = molecular target: T1, calcium channels (Oryctolagus cuniculus, UniProt P15381); test: Inhibition of nitrendipine binding to calcium channels; assay type: New Zealand white rabbit (heart membranes); details: for IC50: Table II
T1 construct: from tissue; host or cells: rabbit heart membranes (female New Zealand white rabbits; 42,000 xg pellet)
Protocol: (1) Inhibition of nitrendipine binding to calcium channels.
The assay for inhibition of nitrendipine binding follows the following procedure:
Female, New Zealand white rabbits (1-2 kg) are sacrificed by cervical dislocation, and the heart is immediately removed, cleaned, and chopped into small pieces. The tissue is homogenized in 5X volume of 0.05M Hepes buffer, pH 7.4. The homogenate is centrifuged at 4000 xg for 10 minutes; the supernatant is recentrifuged at 42,000 xg for 90 minutes. The resulting membrane pellet is resuspended (0.7 ml/g weight) in 0.05M Hepes, pH 7.4 and stored at -70° C. until used. Each tube of the binding assay contains ^3 H-nitrendipine (0.05-0.50nM), buffer, membranes (0.10 ml), and test compound in a total volume of 1.0 ml. After 90 minutes at 4° C., the bound nitrendipine is separated from the unbound by filtration on Whatman GF/C fibers. After rinsing, the filters are dried and counted in a liquid scintillation counter.
Non-specific binding of ^3 H-nitrendipine (that amount bound in the presence of excess unlabelled nitrendipine) is subtracted from the total bound to obtain specifically bound radiolabeled nitrendipine. The amount of specifically bound nitrendipine in the presence of a test compound is compared to that amount bound in the absence of a compound. A percent displacement (or inhibition) can then be obtained.

Trachea Muscle = test: Inhibition of calcium dependent smooth muscle contraction (trachea); assay type: cell-based, dog; details: Table II; concentration 0.3 μM
Protocol: The test for inhibition of calcium dependent smooth muscle contraction is determined according to the following procedure:
Trachea from dogs sacrificed by excess KCl injection are stored overnight at 4° C. in oxygenated Krebs-Henseleit buffer. Tracheal rings, one cartilage segment wide (5-10 mm), are cut starting from the bronchial end. After cutting the cartilage, the trachealis muscle tissue is suspended in oxygenated Krebs-Henseleit buffer at 37° C. in a 25 ml tissue bath. After a 60 minutes equilibration period, the tissues are challenged with 10 uM carbachol. After 5 minutes the tissues are rinsed and allowed to rest 50 minutes. The tissues are then challenged with 50 mM KCl and, after 30 minutes, the contractions are quantitated. The tissues are then rinsed and reequilibrated for 50 minutes. Test compounds are then added for 10 minutes, and the tissue is rechallenged with 50 mMKcl. After 30 minutes, the contraction is recorded and used to determine the % inhibition of control.
The percent inhibition of smooth muscle contracting is calculated from response data before and after drug treatment. [formula] A rating is assigned to the compound depending upon the percent inhibition obtained.

T1 sequence (P15381 whole entry, other chains not shown): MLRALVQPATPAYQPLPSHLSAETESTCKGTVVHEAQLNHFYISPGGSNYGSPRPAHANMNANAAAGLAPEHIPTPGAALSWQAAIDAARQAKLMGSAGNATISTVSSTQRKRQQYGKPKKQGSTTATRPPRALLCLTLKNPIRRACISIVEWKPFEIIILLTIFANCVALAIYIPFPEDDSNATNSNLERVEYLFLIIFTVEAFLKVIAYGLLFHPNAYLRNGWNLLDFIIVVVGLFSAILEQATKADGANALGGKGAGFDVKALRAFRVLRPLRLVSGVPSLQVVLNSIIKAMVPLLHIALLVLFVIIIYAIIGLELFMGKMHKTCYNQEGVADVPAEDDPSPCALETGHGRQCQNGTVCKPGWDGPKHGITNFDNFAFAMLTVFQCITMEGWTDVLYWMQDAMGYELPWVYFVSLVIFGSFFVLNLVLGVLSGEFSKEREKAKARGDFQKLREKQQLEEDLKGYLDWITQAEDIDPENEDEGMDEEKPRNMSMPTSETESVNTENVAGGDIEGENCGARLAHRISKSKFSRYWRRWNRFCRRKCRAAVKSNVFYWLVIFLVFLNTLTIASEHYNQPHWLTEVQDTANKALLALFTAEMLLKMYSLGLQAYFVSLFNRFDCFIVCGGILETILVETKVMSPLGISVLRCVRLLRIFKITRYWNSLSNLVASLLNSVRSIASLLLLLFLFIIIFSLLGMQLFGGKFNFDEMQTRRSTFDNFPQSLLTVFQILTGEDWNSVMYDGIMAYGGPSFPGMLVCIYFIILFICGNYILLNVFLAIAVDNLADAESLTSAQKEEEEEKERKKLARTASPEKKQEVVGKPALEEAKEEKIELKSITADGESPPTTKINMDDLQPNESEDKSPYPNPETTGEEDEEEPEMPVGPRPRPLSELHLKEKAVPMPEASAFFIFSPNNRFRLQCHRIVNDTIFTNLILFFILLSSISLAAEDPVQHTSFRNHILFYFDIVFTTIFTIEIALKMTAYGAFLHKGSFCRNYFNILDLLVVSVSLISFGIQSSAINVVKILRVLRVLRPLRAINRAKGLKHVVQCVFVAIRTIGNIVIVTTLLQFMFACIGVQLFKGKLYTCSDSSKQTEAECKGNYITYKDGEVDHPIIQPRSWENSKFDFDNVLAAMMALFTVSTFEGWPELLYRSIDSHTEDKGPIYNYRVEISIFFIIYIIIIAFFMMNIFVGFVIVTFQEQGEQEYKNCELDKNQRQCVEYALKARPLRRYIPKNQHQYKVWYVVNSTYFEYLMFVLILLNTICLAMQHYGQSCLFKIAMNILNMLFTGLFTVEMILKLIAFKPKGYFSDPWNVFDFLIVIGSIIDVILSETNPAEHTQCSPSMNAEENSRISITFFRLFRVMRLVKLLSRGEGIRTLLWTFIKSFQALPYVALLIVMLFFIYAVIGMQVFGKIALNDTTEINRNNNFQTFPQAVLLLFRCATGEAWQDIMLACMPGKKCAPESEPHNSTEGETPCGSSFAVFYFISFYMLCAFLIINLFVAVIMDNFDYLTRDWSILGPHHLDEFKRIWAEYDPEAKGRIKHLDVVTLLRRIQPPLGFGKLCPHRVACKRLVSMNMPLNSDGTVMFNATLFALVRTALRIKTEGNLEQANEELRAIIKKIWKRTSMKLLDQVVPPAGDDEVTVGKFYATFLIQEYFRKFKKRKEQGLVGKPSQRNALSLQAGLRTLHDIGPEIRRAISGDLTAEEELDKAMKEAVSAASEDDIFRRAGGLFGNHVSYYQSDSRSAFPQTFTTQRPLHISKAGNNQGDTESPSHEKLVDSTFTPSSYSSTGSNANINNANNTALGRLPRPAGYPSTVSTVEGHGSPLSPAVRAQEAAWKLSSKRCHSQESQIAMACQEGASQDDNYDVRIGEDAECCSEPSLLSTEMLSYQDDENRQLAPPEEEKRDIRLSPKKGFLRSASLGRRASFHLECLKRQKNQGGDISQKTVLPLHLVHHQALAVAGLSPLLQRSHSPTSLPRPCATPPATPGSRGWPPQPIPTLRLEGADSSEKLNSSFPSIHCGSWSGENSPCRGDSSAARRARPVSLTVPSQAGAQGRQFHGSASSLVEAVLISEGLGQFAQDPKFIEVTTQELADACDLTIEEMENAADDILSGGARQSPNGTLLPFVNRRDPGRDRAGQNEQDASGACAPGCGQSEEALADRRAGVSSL
T1 sequence (P13806 27-960 partner limits assumed, other chains not shown): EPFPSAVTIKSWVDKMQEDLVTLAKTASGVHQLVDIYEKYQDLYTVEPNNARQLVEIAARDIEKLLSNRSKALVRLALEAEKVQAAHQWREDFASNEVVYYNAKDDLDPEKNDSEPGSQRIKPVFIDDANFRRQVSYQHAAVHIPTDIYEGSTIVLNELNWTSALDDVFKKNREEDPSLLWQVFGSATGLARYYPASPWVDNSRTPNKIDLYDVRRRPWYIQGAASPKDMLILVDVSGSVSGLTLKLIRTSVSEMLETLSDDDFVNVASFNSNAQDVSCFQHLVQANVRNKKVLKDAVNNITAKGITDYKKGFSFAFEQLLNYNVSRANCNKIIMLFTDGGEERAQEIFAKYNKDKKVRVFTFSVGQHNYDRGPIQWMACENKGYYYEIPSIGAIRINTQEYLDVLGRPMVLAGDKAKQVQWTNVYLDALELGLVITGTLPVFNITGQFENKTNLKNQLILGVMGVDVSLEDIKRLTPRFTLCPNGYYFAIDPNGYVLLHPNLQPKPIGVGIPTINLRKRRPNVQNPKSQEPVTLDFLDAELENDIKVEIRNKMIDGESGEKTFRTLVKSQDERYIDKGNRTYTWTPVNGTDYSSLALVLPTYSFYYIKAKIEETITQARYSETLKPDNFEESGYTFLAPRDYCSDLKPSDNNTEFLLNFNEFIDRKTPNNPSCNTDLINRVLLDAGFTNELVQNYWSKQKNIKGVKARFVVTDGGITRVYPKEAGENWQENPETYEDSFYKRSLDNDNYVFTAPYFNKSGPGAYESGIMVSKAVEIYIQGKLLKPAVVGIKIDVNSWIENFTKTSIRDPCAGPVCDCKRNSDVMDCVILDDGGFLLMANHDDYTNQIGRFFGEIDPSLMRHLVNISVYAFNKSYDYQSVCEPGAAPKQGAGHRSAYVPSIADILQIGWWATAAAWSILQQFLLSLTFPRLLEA
T1 sequence (P13806 961-1106 partner limits assumed, other chains not shown): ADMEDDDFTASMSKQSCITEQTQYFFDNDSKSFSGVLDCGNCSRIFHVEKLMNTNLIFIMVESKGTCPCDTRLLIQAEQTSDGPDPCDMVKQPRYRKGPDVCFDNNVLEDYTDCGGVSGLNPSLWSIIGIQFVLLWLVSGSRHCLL

`CC1=C(C(=O)OCCN(C)Cc2ccccc2)C(c2ccccc2[N+](=O)[O-])C2=C(CCCCCS2(=O)=O)N1` (stereo not shown) [5 2-NO2 C6 H4 CH2 CH2 NCH3 CH2 C6 H5] gave an IC50 (calcium channels; second part, read-out: Inhibition Nitrendipine binding IC^50) of 110 nM.

With `COC(=O)C1=C(C)NC2(O)CCS(=O)(=O)C2C1c1ccccc1[N+](=O)[O-]` (stereo not shown) [Methyl 2,3,3a,4,7,7a-hexahydro-3a-hydroxy-5-methyl-7-(2-nitrophenyl)-1,1-dioxo-thieno[3,2-b]pyridine-6-carboxylate] the “Inhibition of Nitrendipine binding (percent at stated concentration)” value (calcium channels; Table I, @ 8.0) was 56%.

`CCOC(=O)C1=C(C)NC2=C(C1c1cccnc1SC)S(=O)(=O)CCCCC2` (stereo not shown) [drawing 8 CH2 CH3] was tested, and the IC50 (calcium channels; first part, read-out: Inhibition of Nitrendipine binding IC50) was 108 nM and the “Inhibition of Trachea Muscle Contraction, % Inhibition” value (Trachea Muscle) was 79%.
